Usually Ki stands for the equilibrium dissociation constant of an inhibitor or competing ligand from its target. A high value points to a looser hold on the target.

From patent US8952157B2, “Apoptosis-inducing agents for the treatment of cancer and immune and autoimmune diseases” (AbbVie Inc., priority 2008, dated 2015) come the findings set out here.

For this assay, the target named is GST-Bcl-2 (Homo sapiens (Human), UniProt P10415). Kind of assay: Time Resolved-Fluorescence Resonance Energy Transfer (TR-FRET) Bcl-2 binding assay. The settings on record: GST-Bcl-2 1 nM, F-Bak peptide probe 100 nM, Tb-anti-GST antibody 1 nM; Ki by Wang's equation. The method in brief: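 Competition TR-FRET: GST-Bcl-2 with fluorescent Bak peptide probe and Tb-anti-GST antibody, compounds serially diluted from 50 μM (2× start, 10% DMSO).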
Sequence of GST-Bcl-2 (P10415 whole entry): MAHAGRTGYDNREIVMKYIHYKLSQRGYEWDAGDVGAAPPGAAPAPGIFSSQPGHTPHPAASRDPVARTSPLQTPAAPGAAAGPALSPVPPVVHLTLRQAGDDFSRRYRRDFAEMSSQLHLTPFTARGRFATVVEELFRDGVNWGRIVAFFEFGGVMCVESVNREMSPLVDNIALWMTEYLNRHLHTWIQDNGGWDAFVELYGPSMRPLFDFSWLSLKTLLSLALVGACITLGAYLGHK
(In general: TR-FRET usually uses a lanthanide donor and a delayed reading to cut background.)

The structures appear in SMILES notation. A value given as a limit tells only on which side of the number the result lay.

For `CC1(C)CCC(CN2CCN(c3ccc(C(=O)NS(=O)(=O)c4cnc(NC5CCN(C6CCOCC6)CC5)c(Br)c4)c(Oc4cc5cc[nH]c5cc4F)c3)CC2)=C(c2ccc(Cl)cc2)C1` [Example 312, N-({5-bromo-6-[(1-tetrahydro-2H-pyran-4-ylpiperidin-4-yl)amino]pyridin-3-yl}sulfonyl)-4-(4-{[2-(4-chlorophenyl)-4,4-dimethylcyclohex-1-en-1-yl]methyl}piperazin-1-yl)-2-[(6-fluoro-1H-indol-5-yl)oxy]benzamide], the inhibition constant (Ki) was 0.531 nM.
With `CC1(C)CCC(CN2CCN(c3ccc(C(=O)NS(=O)(=O)c4ccc(NC5CCN(C6CCCC6)CC5)c([N+](=O)[O-])c4)c(Oc4cccc(Cl)c4)c3)CC2)=C(c2ccc(Cl)cc2)C1` [Example 130, 2-(3-chlorophenoxy)-4-(4-{[2-(4-chlorophenyl)-4,4-dimethylcyclohex-1-en-1-yl]methyl}piperazin-1-yl)-N-({4-[(1-cyclopentylpiperidin-4-yl)amino]-3-nitrophenyl}sulfonyl)benzamide] the figure was 0.067 nM.
With `CN1CCC(Nc2ccc(S(=O)(=O)NC(=O)c3ccc(N4CCN(CC5=C(c6ccc(Cl)cc6)CC(C)(C)CC5)CC4)cc3Oc3c(F)cccc3Cl)cc2[N+](=O)[O-])CC1` [Example 151, 2-(2-chloro-6-fluorophenoxy)-4-(4-{[2-(4-chlorophenyl)-4,4-dimethylcyclohex-1-en-1-yl]methyl}piperazin-1-yl)-N-({4-[(1-methylpiperidin-4-yl)amino]-3-nitrophenyl}sulfonyl)benzamide] the figure was 6.94 nM; with `CNc1ncc(Oc2cc(N3CCN(CC4=C(c5ccc(Cl)cc5)CC(C)(C)CC4)CC3)ccc2C(=O)NS(=O)(=O)c2ccc(NCC3CCOCC3)c([N+](=O)[O-])c2)cc1Cl` [Example 377, 2-{[5-chloro-6-(methylamino)pyridin-3-yl]oxy}-4-(4-{[2-(4-chlorophenyl)-4,4-dimethylcyclohex-1-en-1-yl]methyl}piperazin-1-yl)-N-({3-nitro-4-[(tetrahydro-2H-pyran-4-ylmethyl)amino]phenyl}sulfonyl)benzamide], 2.32 nM.
In turn, `CN1CCC(Nc2ccc(S(=O)(=O)NC(=O)c3ccc(N4CCN(CC5=C(c6ccc(Cl)cc6)CC(C)(C)CC5)CC4)cc3Oc3cccc(Cl)c3F)cc2[N+](=O)[O-])CC1` [Example 147, 2-(3-chloro-2-fluorophenoxy)-4-(4-{[2-(4-chlorophenyl)-4,4-dimethylcyclohex-1-en-1-yl]methyl}piperazin-1-yl)-N-({4-[(1-methylpiperidin-4-yl)amino]-3-nitrophenyl}sulfonyl)benzamide] returned a Ki of 0.127 nM. This Ki is about 18-fold lower than that of the compound before.
`CN1CCC(Nc2ccc(S(=O)(=O)NC(=O)c3ccc(N4CCN(CC5=C(c6ccc(Cl)cc6)CC(C)(C)CC5)CC4)cc3Oc3cc(Cl)cc(Cl)c3)cc2[N+](=O)[O-])CC1` [Example 35, 4-(4-((2-(4-chlorophenyl)-4,4-dimethylcyclohex-1-en-1-yl)methyl)piperazin-1-yl)-2-(3,5-dichlorophenoxy)-N-((4-((1-methylpiperidin-4-yl)amino)-3-nitrophenyl)sulfonyl)benzamide] returned a Ki of 0.022 nM. This Ki is about 5.8-fold lower than that of the compound before.
`CN1CCC(Nc2ccc(S(=O)(=O)NC(=O)c3ccc(N4CCN(CC5=C(c6ccc(Cl)cc6)CC(C)(C)CC5)CC4)cc3Oc3cccc(F)c3Cl)cc2[N+](=O)[O-])CC1` [Example 177, 2-(2-chloro-3-fluorophenoxy)-4-(4-{[2-(4-chlorophenyl)-4,4-dimethylcyclohex-1-en-1-yl]methyl}piperazin-1-yl)-N-({4-[(1-methylpiperidin-4-yl)amino]-3-nitrophenyl}sulfonyl)benzamide] had a Ki of 0.037 nM. Against the preceding compound, the Ki is about 1.7-fold higher.
Regarding `CC1(C)CC(c2ccc(Cl)cc2)=C(CN2CCN(c3ccc(C(=O)NS(=O)(=O)c4cnc(OCC5CCC(F)(F)CC5)c(Cl)c4)c(Oc4cc5cc[nH]c5cc4F)c3)CC2)CO1` [Example 410, N-({5-chloro-6-[(4,4-difluorocyclohexyl)methoxy]pyridin-3-yl}sulfonyl)-4-(4-{[4-(4-chlorophenyl)-6,6-dimethyl-5,6-dihydro-2H-pyran-3-yl]methyl}piperazin-1-yl)-2-[(6-fluoro-1H-indol-5-yl)oxy]benzamide], the Ki was less than 0.01 nM.
As for `CC(C)(C)OC(=O)Nc1cccc(Oc2cc(N3CCN(Cc4ccccc4-c4ccc(Cl)cc4)CC3)ccc2C(=O)NS(=O)(=O)c2ccc(NCC3CCOCC3)c([N+](=O)[O-])c2)c1` [Example 85, tert-butyl 3-(5-(4-((4′-chloro-1,1′-biphenyl-2-yl)methyl)piperazin-1-yl)-2-((((3-nitro-4-((tetrahydro-2H-pyran-4-ylmethyl)amino)phenyl)sulfonyl)amino)carbonyl)phenoxy)phenylcarbamate], the Ki was 5.63 nM.
Consider `CC1(C)CCC(CN2CCN(c3ccc(C(=O)NS(=O)(=O)c4ccc(NCC5CCOCC5)c([N+](=O)[O-])c4)c(Oc4ccnc(N)c4)c3)CC2)=C(c2ccc(Cl)cc2)C1` [Example 282, 2-[(2-aminopyridin-4-yl)oxy]-4-(4-{[2-(4-chlorophenyl)-4,4-dimethylcyclohex-1-en-1-yl]methyl}piperazin-1-yl)-N-({3-nitro-4-[(tetrahydro-2H-pyran-4-ylmethyl)amino]phenyl}sulfonyl)benzamide], for which the affinity corresponds to a Ki of 1.01 nM. Against the preceding compound, the Ki is about 5.6-fold lower.
`CC1(C)CCC(CN2CCN(c3ccc(C(=O)NS(=O)(=O)c4ccc(NCC5CCOCC5)c([N+](=O)[O-])c4)c(Oc4ccccc4-c4ccn[nH]4)c3)CC2)=C(c2ccc(Cl)cc2)C1` [Example 408, 4-(4-{[2-(4-chlorophenyl)-4,4-dimethylcyclohex-1-en-1-yl]methyl}piperazin-1-yl)-N-({3-nitro-4-[(tetrahydro-2H-pyran-4-ylmethyl)amino]phenyl}sulfonyl)-2-[2-(1H-pyrazol-5-yl)phenoxy]benzamide] showed a Ki of 1.16 nM. The Ki values of the last two compounds are within 1.5-fold of each other.
`CN(C)CC(=O)N1CCC(F)(COc2ncc(S(=O)(=O)NC(=O)c3ccc(N4CCN(CC5=C(c6ccc(Cl)cc6)CC(C)(C)CC5)CC4)cc3Oc3cnc(N)c(Cl)c3)cc2Cl)CC1` [Example 393, 2-[(6-amino-5-chloropyridin-3-yl)oxy]-N-[(5-chloro-6-{[1-(N,N-dimethylglycyl)-4-fluoropiperidin-4-yl]methoxy}pyridin-3-yl)sulfonyl]-4-(4-{[2-(4-chlorophenyl)-4,4-dimethylcyclohex-1-en-1-yl]methyl}piperazin-1-yl)benzamide] registered a Ki of less than 0.01 nM.
The compound `CC1(C)CCC(CN2CCN(c3ccc(C(=O)NS(=O)(=O)c4ccc(NCC5CCOCC5)c([N+](=O)[O-])c4)c(Oc4ccccc4-c4cn[nH]c4)c3)CC2)=C(c2ccc(Cl)cc2)C1` [Example 406, 4-(4-{[2-(4-chlorophenyl)-4,4-dimethylcyclohex-1-en-1-yl]methyl}piperazin-1-yl)-N-({3-nitro-4-[(tetrahydro-2H-pyran-4-ylmethyl)amino]phenyl}sulfonyl)-2-[2-(1H-pyrazol-4-yl)phenoxy]benzamide] returned a Ki of 0.166 nM.
With `COc1cc2[nH]ccc2cc1Oc1cc(N2CCN(CC3=C(c4ccc(Cl)cc4)CC(C)(C)CC3)CC2)ccc1C(=O)NS(=O)(=O)c1ccc(NC2CCN(C3CCOCC3)CC2)c([N+](=O)[O-])c1` [Example 227, 4-(4-{[2-(4-chlorophenyl)-4,4-dimethylcyclohex-1-en-1-yl]methyl}piperazin-1-yl)-2-[(6-methoxy-1H-indol-5-yl)oxy]-N-({3-nitro-4-[(1-tetrahydro-2H-pyran-4-ylpiperidin-4-yl)amino]phenyl}sulfonyl)benzamide] the figure was 0.174 nM.
Regarding `CN(C)C(=O)c1ccccc1Oc1cc(N2CCN(Cc3ccccc3-c3ccc(Cl)cc3)CC2)ccc1C(=O)NS(=O)(=O)c1ccc(NCC2CCOCC2)c([N+](=O)[O-])c1` [Example 30, 2-(5-(4-((4′-chlorobiphenyl-2-yl)methyl)piperazin-1-yl)-2-(3-nitro-4-((tetrahydro-2H-pyran-4-yl)methylamino)phenylsulfonylcarbamoyl)phenoxy)-N,N-dimethylbenzamide], affinity was put at a Ki of 0.071 nM.
The compound `CN1CCC(Nc2ccc(S(=O)(=O)NC(=O)c3ccc(N4CCN(CC5=C(c6ccc(Cl)cc6)CC(C)(C)OC5)CC4)cc3Oc3cccc(F)c3F)cc2[N+](=O)[O-])CC1` [Example 145, 4-(4-{[4-(4-chlorophenyl)-6,6-dimethyl-5,6-dihydro-2H-pyran-3-yl]methyl}piperazin-1-yl)-2-(2,3-difluorophenoxy)-N-({4-[(1-methylpiperidin-4-yl)amino]-3-nitrophenyl}sulfonyl)benzamide] showed a Ki of 0.057 nM.
In the case of `CC1(C)CCC(CN2CCN(c3ccc(C(=O)NS(=O)(=O)c4ccc(NCCCN5CCOCC5)c([N+](=O)[O-])c4)c(Oc4ccccc4Cl)c3)CC2)=C(c2ccc(Cl)cc2)C1` [Example 116, 2-(2-chlorophenoxy)-4-(4-{[2-(4-chlorophenyl)-4,4-dimethylcyclohex-1-en-1-yl]methyl}piperazin-1-yl)-N-({4-[(3-morpholin-4-ylpropyl)amino]-3-nitrophenyl}sulfonyl)benzamide], affinity was put at a Ki of 0.123 nM.
For the compound `COCOc1cccc(Oc2cc(N3CCN(CC4=C(c5ccc(Cl)cc5)CC(C)(C)CC4)CC3)ccc2C(=O)NS(=O)(=O)c2ccc(NC3CCN(C)CC3)c([N+](=O)[O-])c2)c1C` [Example 158, 4-(4-{[2-(4-chlorophenyl)-4,4-dimethylcyclohex-1-en-1-yl]methyl}piperazin-1-yl)-2-[3-(methoxymethoxy)-2-methylphenoxy]-N-({4-[(1-methylpiperidin-4-yl)amino]-3-nitrophenyl}sulfonyl)benzamide], the inhibition constant (Ki) came out at 0.619 nM.
`CNC(=O)c1cccc(Oc2cc(N3CCN(Cc4ccccc4-c4ccc(Cl)cc4)CC3)ccc2C(=O)NS(=O)(=O)c2ccc(NCCCN(C)C)c([N+](=O)[O-])c2)c1` [Example 104, 4-(4-((4′-chlorobiphenyl-2-yl)methyl)piperazin-1-yl)-N-(4-(3-(dimethylamino)propylamino)-3-nitrophenylsulfonyl)-2-(3-(methylcarbamoyl)phenoxy)benzamide] had a Ki of 2.32 nM.
